According to PubChem BioAssay AID1259407 (Chemical Carcinogenesis Research Information System (CCRIS), 2018):
Active and inactive are the calls of the source. No rule for the calls is given here.

Test system: CCRIS mutagenicity, Ames/micronucleus/aberration tests
Test: CCRIS mutagenicity studies
[1] = Test System: AMES SALMONELLA TYPHIMURIUM, Strain/Indicator: TA98, Metabolic Activation: NONE, Method: PREINCUBATION
[2] = Test System: AMES SALMONELLA TYPHIMURIUM, Strain/Indicator: TA100, Metabolic Activation: NONE, Method: PREINCUBATION
[3] = Test System: AMES SALMONELLA TYPHIMURIUM, Strain/Indicator: TA1535, Metabolic Activation: NONE, Method: PREINCUBATION
[4] = Test System: AMES SALMONELLA TYPHIMURIUM, Strain/Indicator: TA1537, Metabolic Activation: NONE, Method: PREINCUBATION
[5] = Test System: AMES SALMONELLA TYPHIMURIUM, Strain/Indicator: TA98, Metabolic Activation: NONE, Method: STANDARD PLATE
[6] = Test System: AMES SALMONELLA TYPHIMURIUM, Strain/Indicator: TA100, Metabolic Activation: NONE, Method: STANDARD PLATE

Question: Which results are given for `CS`?
Answer: mutagenic call [1]: inactive; negative; mutagenic call (Test System: AMES SALMONELLA TYPHIMURIUM, Strain/Indicator: TA98, Metabolic Activation: RAT, LIVER, S-9, SODIUM PHENOBARBITAL AND 5,6-BENZOFLAVONE, Method: PREINCUBATION): inactive; negative; mutagenic call [2]: inactive; negative; mutagenic call (Test System: AMES SALMONELLA TYPHIMURIUM, Strain/Indicator: TA100, Metabolic Activation: RAT, LIVER, S-9, SODIUM PHENOBARBITAL AND 5,6-BENZOFLAVONE, Method: PREINCUBATION): inactive; negative; mutagenic call (Test System: AMES SALMONELLA TYPHIMURIUM, Strain/Indicator: TA102, Metabolic Activation: NONE, Method: PREINCUBATION): inactive; negative; mutagenic call (Test System: AMES SALMONELLA TYPHIMURIUM, Strain/Indicator: TA102, Metabolic Activation: RAT, LIVER, S-9, SODIUM PHENOBARBITAL AND 5,6-BENZOFLAVONE, Method: PREINCUBATION): inactive; negative; mutagenic call (Test System: AMES SALMONELLA TYPHIMURIUM, Strain/Indicator: TA104, Metabolic Activation: NONE, Method: PREINCUBATION): inactive; negative; mutagenic call (Test System: AMES SALMONELLA TYPHIMURIUM, Strain/Indicator: TA104, Metabolic Activation: RAT, LIVER, S-9, SODIUM PHENOBARBITAL AND 5,6-BENZOFLAVONE, Method: PREINCUBATION): inactive; negative; mutagenic call [3]: inactive; negative; mutagenic call (Test System: AMES SALMONELLA TYPHIMURIUM, Strain/Indicator: TA1535, Metabolic Activation: RAT, LIVER, S-9, SODIUM PHENOBARBITAL AND 5,6-BENZOFLAVONE, Method: PREINCUBATION): inactive; negative; mutagenic call [4]: inactive; negative; mutagenic call (Test System: AMES SALMONELLA TYPHIMURIUM, Strain/Indicator: TA1537, Metabolic Activation: RAT, LIVER, S-9, SODIUM PHENOBARBITAL AND 5,6-BENZOFLAVONE, Method: PREINCUBATION): inactive; negative; mutagenic call (Test System: E. COLI, Strain/Indicator: WP2UVRA/PKM101, Metabolic Activation: NONE, Method: PREINCUBATION): inactive; negative; mutagenic call (Test System: E. COLI, Strain/Indicator: WP2UVRA/PKM101, Metabolic Activation: RAT, LIVER, S-9, SODIUM PHENOBARBITAL AND 5,6-BENZOFLAVONE, Method: PREINCUBATION): inactive; negative; mutagenic call (Test System: E. COLI, Strain/Indicator: WP2UVRA, Metabolic Activation: NONE, Method: PREINCUBATION): inactive; negative; mutagenic call (Test System: E. COLI, Strain/Indicator: WP2UVRA, Metabolic Activation: RAT, LIVER, S-9, SODIUM PHENOBARBITAL AND 5,6-BENZOFLAVONE, Method: PREINCUBATION): inactive; negative

Question: Which mutagenic call [1] does the source give for `Cc1nc2ccc(N)cc2nc1C` here?
Answer: active; positive

Question: And the mutagenic call (Test System: AMES SALMONELLA TYPHIMURIUM, Strain/Indicator: TA98, Metabolic Activation: RAT, LIVER, S-9, PCB, Method: PREINCUBATION)?
Answer: active; positive

Question: What about the mutagenic call [2] of the same compound?
Answer: inactive; negative

Question: What about the mutagenic call (Test System: AMES SALMONELLA TYPHIMURIUM, Strain/Indicator: TA100, Metabolic Activation: RAT, LIVER, S-9, PCB, Method: PREINCUBATION) of the same compound?
Answer: active; positive

Question: With `BrCc1ccc2c(c1)-c1cccc3cccc-2c13` as the compound, how does the mutagenic call [5] read?
Answer: active; positive

Question: And the mutagenic call [6]?
Answer: active; positive

Question: What does the source list for `CCc1c2ccccc2c(CC)c2c1ccc1ccccc12`?
Answer: mutagenic call (Test System: AMES SALMONELLA TYPHIMURIUM, Strain/Indicator: TA98, Method: STANDARD PLATE): inactive; negative; mutagenic call (Test System: AMES SALMONELLA TYPHIMURIUM, Strain/Indicator: TA100, Metabolic Activation: RAT, LIVER, S-9, PHENOBARBITAL, Method: STANDARD PLATE): inactive; negative; mutagenic call (Test System: AMES SALMONELLA TYPHIMURIUM, Strain/Indicator: TA100, Method: STANDARD PLATE): inactive; negative

Question: `O=Nc1ccccc1-c1ccccc1` was tested. Which mutagenic call [5] did it give?
Answer: inactive; negative

Question: And the mutagenic call [6]?
Answer: active; positive

Question: `CSCCC=O` was tested. Which mutagenic call [1] did it give?
Answer: inactive; negative

Question: And the mutagenic call (Test System: AMES SALMONELLA TYPHIMURIUM, Strain/Indicator: TA98, Metabolic Activation: RAT LIVER S-9, AROCLOR 1254, Method: PREINCUBATION)?
Answer: inactive; negative

Question: And the mutagenic call [2]?
Answer: inactive; negative

Question: What about the mutagenic call (Test System: AMES SALMONELLA TYPHIMURIUM, Strain/Indicator: TA100, Metabolic Activation: RAT LIVER S-9, AROCLOR 1254, Method: PREINCUBATION) of the same compound?
Answer: inactive; negative

Question: What about the mutagenic call [3] of the same compound?
Answer: inactive; negative

Question: And the mutagenic call (Test System: AMES SALMONELLA TYPHIMURIUM, Strain/Indicator: TA1535, Metabolic Activation: RAT LIVER S-9, AROCLOR 1254, Method: PREINCUBATION)?
Answer: inactive; negative

Question: What about the mutagenic call [4] of the same compound?
Answer: inactive; negative

Question: And the mutagenic call (Test System: AMES SALMONELLA TYPHIMURIUM, Strain/Indicator: TA1537, Metabolic Activation: RAT LIVER S-9, AROCLOR 1254, Method: PREINCUBATION)?
Answer: inactive; negative

Question: And the mutagenic call (Test System: AMES SALMONELLA TYPHIMURIUM, Strain/Indicator: TA1538, Metabolic Activation: NONE, Method: PREINCUBATION)?
Answer: inactive; negative

Question: And the mutagenic call (Test System: AMES SALMONELLA TYPHIMURIUM, Strain/Indicator: TA1538, Metabolic Activation: RAT LIVER S-9, AROCLOR 1254, Method: PREINCUBATION)?
Answer: inactive; negative

Question: And the mutagenic call (Test System: MOUSE LYMPHOMA, Strain/Indicator: L5178Y (TK+/TK-), Metabolic Activation: NONE, Method: SUSPENSION/PLATE)?
Answer: active; positive

Question: And the mutagenic call (Test System: MOUSE LYMPHOMA, Strain/Indicator: L5178Y (TK+/TK-), Metabolic Activation: RAT LIVER S-9, AROCLOR 1254, Method: SUSPENSION/PLATE)?
Answer: active; positive

Question: With `CCOC(=O)OCC` as the compound, how does the mutagenic call (Test System: AMES SALMONELLA TYPHIMURIUM, Strain/Indicator: TA98, Metabolic Activation: HAMSTER, LIVER, S-9, AROCLOR 1254 (10%), Method: PREINCUBATION) read?
Answer: inactive; negative

Question: And the mutagenic call [1]?
Answer: inactive; negative

Question: And the mutagenic call (Test System: AMES SALMONELLA TYPHIMURIUM, Strain/Indicator: TA98, Metabolic Activation: RAT, LIVER, S-9, AROCLOR 1254 (10%), Method: PREINCUBATION)?
Answer: inactive; negative

Question: What about the mutagenic call (Test System: AMES SALMONELLA TYPHIMURIUM, Strain/Indicator: TA100, Metabolic Activation: HAMSTER, LIVER, S-9, AROCLOR 1254 (10%), Method: PREINCUBATION) of the same compound?
Answer: inactive; negative

Question: And the mutagenic call [2]?
Answer: inactive; negative

Question: What about the mutagenic call (Test System: AMES SALMONELLA TYPHIMURIUM, Strain/Indicator: TA100, Metabolic Activation: RAT, LIVER, S-9, AROCLOR 1254 (10%), Method: PREINCUBATION) of the same compound?
Answer: inactive; negative

Question: What about the mutagenic call (Test System: AMES SALMONELLA TYPHIMURIUM, Strain/Indicator: TA1535, Metabolic Activation: HAMSTER, LIVER, S-9, AROCLOR 1254 (10%), Method: PREINCUBATION) of the same compound?
Answer: inactive; negative

Question: And the mutagenic call [3]?
Answer: inactive; negative

Question: What about the mutagenic call (Test System: AMES SALMONELLA TYPHIMURIUM, Strain/Indicator: TA1535, Metabolic Activation: RAT, LIVER, S-9, AROCLOR 1254 (10%), Method: PREINCUBATION) of the same compound?
Answer: inactive; negative

Question: And the mutagenic call (Test System: AMES SALMONELLA TYPHIMURIUM, Strain/Indicator: TA1537, Metabolic Activation: HAMSTER, LIVER, S-9, AROCLOR 1254 (10%), Method: PREINCUBATION)?
Answer: inactive; negative

Question: What about the mutagenic call [4] of the same compound?
Answer: inactive; negative

Question: What about the mutagenic call (Test System: AMES SALMONELLA TYPHIMURIUM, Strain/Indicator: TA1537, Metabolic Activation: RAT, LIVER, S-9, AROCLOR 1254 (10%), Method: PREINCUBATION) of the same compound?
Answer: inactive; negative

Question: With `C[n+]1ccn(CCC[n+]2ccc(C(N)=O)cc2)c1/C=N/O` as the compound, how does the mutagenic call (Test System: AMES SALMONELLA TYPHIMURIUM, Strain/Indicator: TA97, Metabolic Activation: NONE, Method: STANDARD PLATE) read?
Answer: inactive; negative

Question: What about the mutagenic call (Test System: AMES SALMONELLA TYPHIMURIUM, Strain/Indicator: TA97, Metabolic Activation: S-9, Method: STANDARD PLATE) of the same compound?
Answer: inactive; negative

Question: And the mutagenic call [6]?
Answer: inactive; negative

Question: And the mutagenic call (Test System: AMES SALMONELLA TYPHIMURIUM, Strain/Indicator: TA100, Metabolic Activation: S-9, Method: STANDARD PLATE)?
Answer: inactive; negative

Question: And the mutagenic call (Test System: AMES SALMONELLA TYPHIMURIUM, Strain/Indicator: TA104, Metabolic Activation: NONE, Method: STANDARD PLATE)?
Answer: inactive; negative

Question: And the mutagenic call (Test System: AMES SALMONELLA TYPHIMURIUM, Strain/Indicator: TA104, Metabolic Activation: S-9, Method: STANDARD PLATE)?
Answer: inactive; negative

Question: And the mutagenic call (Test System: AMES SALMONELLA TYPHIMURIUM, Strain/Indicator: TA1537, Metabolic Activation: NONE, Method: STANDARD PLATE)?
Answer: inactive; negative

Question: And the mutagenic call (Test System: AMES SALMONELLA TYPHIMURIUM, Strain/Indicator: TA1537, Metabolic Activation: S-9, Method: STANDARD PLATE)?
Answer: inactive; negative

Question: And the mutagenic call (Test System: AMES SALMONELLA TYPHIMURIUM, Strain/Indicator: TA1538, Metabolic Activation: NONE, Method: STANDARD PLATE)?
Answer: inactive; negative

Question: What about the mutagenic call (Test System: AMES SALMONELLA TYPHIMURIUM, Strain/Indicator: TA1538, Metabolic Activation: S-9, Method: STANDARD PLATE) of the same compound?
Answer: inactive; negative

Question: For `O=NN(CCc1c[nH]c2ccccc12)C1OC[C@@H](O)[C@H](O)[C@H]1O` (some centres not stated), which mutagenic call (Test System: AMES SALMONELLA TYPHIMURIUM, Strain/Indicator: TA100, Metabolic Activation: NONE, Method: LIQUID INCUBATION) is on record?
Answer: active; positive
